Here are results for two substances from article PMC7170861, “The TIPE Molecular Pilot That Directs Lymphocyte Migration in Health and Inflammation” (Scientific Reports, 2020).

Common to all, as to test: SPR, lipid vesicles on L1 chip, steady-state fit
Common to all, as to details: 10% (mole/mole) lipid in DOPC vesicles; HBS pH 7.4; 25 °C
In general terms: SPR reads the build-up and loss of mass on a sensor chip optically.

One assay deals with T1, GRP1-PH.
T1 construct: gene CYTH3; N-terminal 6His-SUMO tag cleaved off; E. coli BL21(DE3)
The text has this: SPR, lipid vesicles on L1 chip, steady-state fit on GRP1-PH | Purified PLCδ-PH and GRP1-PH domains were used as positive controls

Another assay has as its target T2, TNFAIP8 (Mus musculus, UniProt Q921Z5).
T2 construct: isoform 1; pET-SUMO, N-terminal 6His-SUMO tag cleaved off by SUMO protease; E. coli BL21(DE3); untagged native protein
T2 sequence (Q921Z5 1-198): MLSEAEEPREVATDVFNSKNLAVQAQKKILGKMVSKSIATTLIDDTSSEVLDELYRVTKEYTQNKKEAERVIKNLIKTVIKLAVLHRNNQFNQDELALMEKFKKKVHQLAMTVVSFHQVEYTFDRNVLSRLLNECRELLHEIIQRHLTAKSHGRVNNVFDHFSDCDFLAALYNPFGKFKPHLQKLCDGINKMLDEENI
Type of assay: binding.

For the next assay, the target named is T3, PLCδ-PH.
T3 construct: gene PLCD1; N-terminal 6His-SUMO tag cleaved off; E. coli BL21(DE3)
The text has this:
SPR, lipid vesicles on L1 chip, steady-state fit on PLCδ-PH | Purified PLCδ-PH and GRP1-PH domains were used as positive controls

Broadly, the Kd is the free concentration of one partner at which half of the binding sites on the other are occupied at equilibrium, for simple one-to-one binding. High values mean lower affinity, low ones higher affinity. For PtdIns(3,4,5)P3, the values for the equilibrium dissociation constant (Kd) on GRP1-PH and at TNFAIP8 were 980 ± 690 nM and 4060 nM, respectively.
In the case of PtdIns(4,5)P2, the equilibrium dissociation constant (Kd) came out at 2100 ± 1550 nM on PLCδ-PH and 3160 nM at TNFAIP8.
